# Entries after “also recorded” stand apart in the source; their conditions may differ.
# Key:
# Assay type in all cases: cell-based
# [1] = system: THP1 human macrophage cells; assay: Stimulation of THP-1 cells, IL-6 at 6 or 36 hours post stimulation; settings: THP1-derived macrophages, IFNγ + LPS, 0.1 to 500 μM, FIG. 9
# Description: Human immortalized monocytic THP-1 cells were maintained in phenol red free RPMI 1640 medium containing 10% (v/v) fetal bovine serum (FBS), 2 mM L-glutamine, penicillin (100 units/mL), streptomycin (100 μg/mL), amphotericin B (2.5 μg/mL), and 50 μM beta-mercaptoethanol (BME) at 37° C. with 5% (v/v) CO2. THP-1 cells were seeded in 1 mL of THP-1 medium (cell culture medium containing 10% (v/v) FBS, 2 mM L-glutamine, penicillin (100 units/mL), streptomycin (100 μg/mL), amphotericin B ([…]), and 50 μM BME)/well at a density of 1×10^6 cells/mL in six-well plates. Cells were differentiated by adding 10, 50, or 100 nM phorbol 12-myristate 13-acetate (PMA) to each well before incubating cells for 5.5 h at 37° C. with 5% (v/v) CO2. Without removing the media, different concentrations (either 0, 0.1, 1.0, 10, 100, 200, or 500 μM) of the compound were added to each well. Cells were stimulated, within 30 min by adding 20 ng/mL interferon gamma (IFNγ) and 100 ng/mL lipopolysaccharide (LPS) to each well. Following stimulation, the THP-1 cells were incubated for 6 or 36 hours at 37° C. with 5% (v/v) CO2. Supernatant was collected and stored at −80° C. until use.
# IL-6 released from supernatants collected at 6 or 36 hours post stimulation with IFNγ and LPS were measured using the AlphaLISA Human IL-6 detection kit.
# [2] = system: EPC2 human esophageal keratinocytes; assay: Stimulation of EPC2-hTERT human esophageal keratinocytes with Poly(I:C); settings: 24 hours; for percent inhibition relative to Stimulated of IL-6 expression: FIG. 19B; for percent inhibition relative to Stimulated of MCP-1 expression: FIG. 19C; for percent inhibition relative to Stimulated of TSLP expression: FIG. 19A
# Description: EPC2-hTERT (EPC2) cells were maintained in supplemented keratinocyte serum-free medium (KSFM) with 0.09 mM calcium chloride containing epidermal growth factor (5 ng/mL), bovine pituitary extract ([…]), penicillin (100 units/mL), and streptomycin ([…]) (ThermoFisher #17005042) at 37° C. with 5% (v/v) CO2. EPC2 cells were seeded in 12-well plates at 0.55×10^6 cells per well in supplemented KSFM at 37° C. with 5% (v/v) CO2 and after 6 hours the old media is removed and changed with fresh media. After overnight incubation, the old media is changed to supplemented KSFM containing 1.8 mM calcium chloride and incubated for 72 hours at 37° C. with 5% (v/v) CO2. After the old media is removed and fresh supplemented KSFM containing 1.8 mM calcium chloride is added, the cells are pre-treated with different concentrations of compounds (0, 1, 10, 100, 500, 1000 μM) for 1 hour prior to stimulation. To stimulate the cells, Poly (I:C) (Tocris #4287) is added to the wells at […] concentration without removing the media and incubated for 24 hours at 37° C. with 5% (v/v) CO2. Supernatants are collected in Eppendorf tubes, centrifuged in a microfuge at maximum speed for 10 minutes at 4° C., and the centrifuged supernatants stored at −80° C. until quantitative detection assays are performed. Human Interleukin-6 (IL-6), Monocyte Chemoattractant Protein-1 (MCP-1), and Thymic stromal lymphopoietin (TSLP) released from supernatants collected post stimulation were measured using the AlphaLISA detection kit for human IL-6, MCP-1, and TSLP, respectively.
# [3] = system: BEAS-2B human lung epithelial cells; assay: Stimulation of BEAS-2B human lung epithelial cells, cytokine expression; settings: 20 ng/mL IL-1β, 48 h; for percent inhibition relative to Stimulated of Eotaxin expression: FIG. 12, FIG. 13
# Description: BEAS-2B cells were maintained in Bronchial Epithelial Cell Growth Basal Medium (BEBM) containing all the recommended supplements for the Bronchial Epithelial Cell Growth Medium (BEGM; Lonza #CC-4175) and allowed to attain approximately 70% confluency with media changed every 2-3 days at 37° C. with 5% (v/v) CO2. Tissue culture flasks/vessels were pre-coated with a mixture of 0.01 mg/mL fibronectin (Sigma), 0.03 mg/ml bovine collagen type I (Sigma) and 0.01 mg/mL bovine serum albumin dissolved in the BEBM. BEAS-2B cells were seeded with 0.5 ml of 1×10^6 cells/mL in BEGM per well on 24-well plates and incubated overnight at 37° C. with 5% (v/v) CO2. The cells are pre-treated with different concentrations of compounds (0, 1.0, 10, 100, 1000 μM) for 1 hour prior to stimulation. To stimulate the cells, 10 ng/mL of Interleukin-1 beta (IL-1β), 10 ng/mL of Lipopolysaccharides (LPS), or 20 ng/mL of IL-1$ is added to the wells without removing the media and incubated for 48 hours at 37° C. with 5% (v/v) CO2. Supernatants were collected and stored at −80° C. until quantitative detection assays are performed. Human Eotaxin, Monocyte Chemoattractant Protein-1 (MCP-1), Interleukin-6 (IL-6), Interleukin-25 (IL-25), Interleukin-33 (IL-33), Thymic stromal lymphopoietin (TSLP), and Granulocyte-Macrophage Colony-Stimulating Factor (GM-CSF) released from supernatants collected post stimulation were measured using Human Magnetic Luminex® Assay Kit. Human CCL5/RANTES was measured using an Enzyme-Linked Immunosorbent Assay (ELISA)-based analysis.
# human naïve T cells = assay: Stimulation of blood derived naïve T cells with Der p1 (house dust mite) antigen; settings: at 100 μM; human T cells, Der p1 antigen; FIG. 15
# Description: Naïve T cells from peripheral blood samples were collected and processed using MACSxpress® Whole Blood Pan T Cell Isolation Kit (Miltenyi Biotec), according to the manufacturer's protocol. Isolated naïve T cells were cultured in RPMI medium supplemented with 5% Fetal Bovine Serum (FBS) at 37° C. with 5% (v/v) CO2. T cells were seeded in 24 well plates at a density of 0.5×10^6 cells per well. The cells were pre-treated with the compounds (0, 0.1, 1.0, 10, 100 μM) for 1 hour prior to stimulation. Cells were stimulated with […] of Dermatophagoides pteronyssinus (Der p1) antigen. After 48 hours, fresh […] of Der p1 was added and continued incubating for a further 72 hours at 37° C. with 5% (v/v) CO2. Overall T cells were stimulated with […] of Der p1 antigen for 5 days before supernatants were collected and stored at −80° C. until quantitative detection assays are performed.
# Human Interleukin-4 (IL-4), Interleukin-5 (IL-5), Interleukin-6 (IL-6), Interleukin-8 (IL-8), Interleukin-13 ([…]), Interleukin-23 (IL-23), and Interferon gamma (IFNγ) released from supernatants collected post stimulation were measured using Human Magnetic Luminex® Assay Kit. Human Transforming Growth Factor beta (TGFβ) was measured using an Enzyme-Linked Immunosorbent Assay (ELISA)-based analysis.
compound,measurement,setting,value
"C[C@H](CCC1CC1C(=O)OC(C)(C)C)O[C@@H]1O[C@@H](C)[C@H](O)C[C@H]1O (stereo partly drawn) [Compound 2, tert-butyl 2-[(3R)-3-{[(2R,3R,5R,6S)-3,5-dihydroxy-6-methyloxan-2-yl]oxy}butyl]cyclopropane-1-carboxylate]",percent inhibition relative to Control of IL-6 levels secreted,[1],"inhibited IL-6 expression in statistically significant, dose-dependent manner"
same,percent inhibition relative to Stimulated of IL-6 expression,[2]; increasing concentrations,inhibited IL6 expression in statistically significant manner
same,percent inhibition relative to Stimulated of MCP-1 expression,[2]; increasing concentrations,inhibited MCP-1 expression in statistically significant manner; also recorded: only showed inhibition at the highest 100 μM concentration
same,percent inhibition relative to Stimulated of IL-6 expression,[2]; at 100 μM,robust inhibition
same,percent inhibition relative to Stimulated of Eotaxin expression,[3],"statistically significant, complete inhibition"
"C[C@H](CC/C=C/C(=O)OCc1ccccc1)O[C@@H]1O[C@@H](C)[C@H](O)C[C@H]1O [Compound 4, benzyl (2E,6R)-6-{[(2R,3R,5R,6S)-3,5-dihydroxy-6-methyloxan-2-yl]oxy}hept-2-enoate]",percent inhibition relative to Stimulated of IL-6 expression,human naïve T cells,statistically significant inhibition
same,percent inhibition relative to Stimulated of IL-8 expression,human naïve T cells,statistically significant inhibition
same,percent inhibition relative to Stimulated of TNFα expression,human naïve T cells,statistically significant inhibition
same,percent inhibition relative to Stimulated of TSLP expression,[2]; increasing concentrations,statistically significant inhibition; also recorded: completely inhibited
same,percent inhibition relative to Stimulated of IL-6 expression,[2]; increasing concentrations,"inhibited IL-6 expression in statistically significant, dose-dependent manner"
same,percent inhibition relative to Stimulated of MCP-1 expression,[2]; increasing concentrations,inhibited MCP-1 expression in statistically significant manner; also recorded: only showed inhibition at the highest 100 μM concentration
"C[C@H](CC/C=C/C(=O)OCc1cccnc1)O[C@@H]1O[C@@H](C)[C@H](O)C[C@H]1O [Compound 5, pyridin-3-ylmethyl (2E,6R)-6-{[(2R,3R,5R,6S)-3,5-dihydroxy-6-methyloxan-2-yl]oxy}hept-2-enoate]",percent inhibition relative to Control of IL-6 levels secreted,[1],"inhibited IL-6 expression in statistically significant, dose-dependent manner"
"C[C@H](CC/C=C/C(=O)OCc1ccncc1)O[C@@H]1O[C@@H](C)[C@H](O)C[C@H]1O [Compound 6, pyridin-4-ylmethyl (2E,6R)-6-{[(2R,3R,5R,6S)-3,5-dihydroxy-6-methyloxan-2-yl]oxy}hept-2-enoate]",percent inhibition relative to Control of IL-6 levels secreted,[1],"inhibited IL-6 expression in statistically significant, dose-dependent manner"
same,percent inhibition relative to Stimulated of IL-33 expression,[3]; FIG. 12,statistically significant inhibition
same,percent inhibition relative to Stimulated of TSLP expression,[3]; FIG. 12,statistically significant inhibition
same,percent inhibition relative to Stimulated of Eotaxin expression,[3],statistically significant inhibition
same,percent inhibition relative to Stimulated of IL-25 expression,"[3]; compound concentration series, FIG. 12",robust inhibition of IL-25 expression at 1 mM concentration
same,"percent inhibition relative to Stimulated of IL-25 expression, level at which it topped out","[3]; even at 100 μM, FIG. 12",60%
"CC(C)OC(=O)/C=C/CC[C@@H](C)O[C@@H]1O[C@@H](C)[C@H](O)C[C@H]1O [Compound 8, isopropyl (R,E)-6-(((2R,3R,5R,6S)-3,5-dihydroxy-6-methyltetrahydro-2H-pyran-2-yl)oxy)hept-2-enoate]",percent inhibition relative to Control of IL-6 levels secreted,[1],"inhibited IL-6 expression in statistically significant, dose-dependent manner"
"C[C@H](CCC(O)CC(=O)OC(C)(C)C)O[C@@H]1O[C@@H](C)[C@H](O)C[C@H]1O (stereo partly drawn) [Compound 9, tert-butyl (6R)-6-(((2R,3R,5R,6S)-3,5-dihydroxy-6-methyltetrahydro-2H-pyran-2-yl)oxy)-3-hydroxyheptanoate]",percent inhibition relative to Control of IL-6 levels secreted,[1],"inhibited IL-6 expression in statistically significant, dose-dependent manner"
"C[C@@H]1O[C@@H](OCCC/C=C/C(=O)OC(C)(C)C)[C@H](O)C[C@H]1O [Compound 11, tert-butyl (E)-6-(((2R,3R,5R)-3,5-dihydroxy-6-methyltetrahydro-2H-pyran-2-yl)oxy)hex-2-enoate]",percent inhibition relative to Control of IL-6 levels secreted,[1],"inhibited IL-6 expression in statistically significant, dose-dependent manner"
same,percent inhibition relative to Stimulated of MCP-1 expression,[2]; increasing concentrations,"inhibited MCP-1 expression in statistically significant, dose-dependent manner"
"C[C@H](CC/C=C/C(=O)N1CCCC1)O[C@@H]1O[C@@H](C)[C@H](O)C[C@H]1O [Compound 13, (R,E)-6-(((2R,3R,5R,6S)-3,5-dihydroxy-6-methyltetrahydro-2H-pyran-2-yl)oxy)-1-(pyrrolidin-1-yl)hept-2-en-1-one]",percent inhibition relative to Control of IL-6 levels secreted,[1],"inhibited IL-6 expression in statistically significant, dose-dependent manner"
same,percent inhibition relative to Stimulated of TSLP expression,[2]; increasing concentrations,inhibited TSLP expression in statistically significant manner; also recorded: robust blocking
same,percent inhibition relative to Stimulated of MCP-1 expression,[2]; increasing concentrations,inhibited MCP-1 expression in statistically significant manner
same,percent inhibition relative to Stimulated of MCP-1 expression,"[2]; increasing concentrations, listed as compound 13",robust blocking of MCP-1 expression starting at 1 mM
